# Patent US8883500B2, “Method of preparing adenosine-resistant anti-tumor T lymphocytes for adoptive immunotherapy” (Northeastern University, priority 2008, dated 2014)
# Values joined by “and” are separate entries in the source; they are usually repeats but may differ in a detail not shown here. Equal values may be shown once.
# Columns and labels:
# [1] = tested on: mixed lymphocyte culture of C57BL/6 and DBA/2 spleen cells (CTL); assay: IFN-γ levels in mixed lymphocyte culture supernatant (ELISA); format: cell-based, mice; conditions: for IFN-γ levels in the culture supernatant, decreased to: primary mixed lymphocyte culture 5 days
# Experimental: (§1) Antigen-specific cytotoxic T cells were induced by allogenic mixed lymphocyte culture using spleen cells from C57BL/6 (H-2^b) and DBA/2 (H-2^d) mice. Spleen cells from DBA/2 mice were pretreated with 50 μg ml^−1 mitomycin C (Sigma; St. Louis, Mo.) for 30 min at 37° C. After washing three times by centrifugation, 2×10^6 DBA/2 spleen cells (stimulator) were mixed with 6×10^6 C57BL/6 spleen cells (responder) in 2 ml of RPMI1640 medium containing 10% fetal calf serum. The cells were cultured for 5 days in a 12 well plastic plate. In some experiments, CTL (2×10^6 cells) were restimulated on day 5 using mitomycin C-treated DBA/2 spleen cells (4×10^6 cells). The restimulated cells were cultured for additional 2 days, and were analyzed on day 7.
# (§2) Culture supernatant was collected 5 days after the set up of mixed lymphocyte culture or 2 days after restimulation and was stored at 4° C. for subsequent measurement of interferon-γ (IFN-γ) levels. IFN-γ was quantified by ELISA (R&D Systems; Minneapolis, Minn.) according to manufacturer's instruction. Cells were incubated for additional 4 h in the presence of 1 μCi [3H] thymidine (American Radiolabeled Chemicals, St. Louis, Mo.) and radioactivity of incorporated thymidine was counted.
# [2] = tested on: mixed lymphocyte culture of C57BL/6 and DBA/2 spleen cells (CTL); assay: Mixed lymphocyte culture: cell proliferation ([3H] thymidine incorporation) and cell number; format: cell-based, mice; conditions: for cell number, % of control: primary mixed lymphocyte culture 5 days
# Experimental: as §1, §2
# [3] = tested on: A2A/A2B adenosine receptor; assay: cAMP assay in CTL; format: cell-based, mice; conditions: control CTL; cAMP inducer 10 μM (FIG. 6 legend), 15 min
# Experimental: Stimulation of cAMP production and measurement of cAMP levels were performed as described previously (Apasov et al., 2000). […]; from Tocris, Ellisville, Mo.), or forskolin (adenylate cyclase activator; from Sigma). […]
# P815 mastocytoma = assay: Cytotoxicity assay, 51Cr release
# Experimental: Cytotoxicity of T cells against P815 mastocytoma (H-2^d) was determined by ^51Cr release assay. Initially, P815 cells (2×10^6) were incubated with 100 μCi [^51Cr] sodium chromate (Perkin Elmer, Boston, Mass.) for 1 h at 37° C. The cells were washed for three times by centrifugation to remove excess radioactivity. The labeled P815 cells (1×10^4 cells) were mixed with the effector cells recovered from mixed lymphocyte culture in a volume of 150 μl. […] Sedimentation of the cells in a v-bottom 96 well plate by brief centrifugation was followed by incubation at 37° C. After 4 h, ^51Cr release in the supernatant from target cells was counted using γ-radiation counter. Spontaneous ^51Cr release was measured by culturing target cells alone. Maximum ^51Cr release was measured by adding 1N hydrochloric acid to the same number of target cells. Cytotoxicity was calculated as percentage cell lysis when spontaneous and maximum ^51Cr release were set to 0% and 100%, respectively.
# CTL = assay: IFN-γ production from CTL restimulated by immobilized anti-CD3 and anti-CD28 mAbs (ELISA); format: cell-based, mice; set-up: IFN-γ levels (%) of corresponding CTL without CGS/NECA / IFN-γ levels (%), None (reference = 100): unit of the concentration uncertain; conditions: for IFN-γ levels: restimulation without agonist (None); for IFN-γ levels (%) of corresponding CTL without CGS/NECA: anti-CD3/anti-CD28 24 h in presence of the agonist (10 (unit uncertain)); for IFN-γ levels (%), None (reference = 100): no agonist at restimulation; for IFN-γ production: control CTL restimulated with anti-CD3 mAb, agonist 10 μM
# Experimental: CTL (2×10^5 cells) were washed twice with media and restimulated by plate-bound anti-CD3 and anti-CD28 monoclonal antibodies (mAb) (BD Biosciences, San Diego, Calif.). Anti-CD3 mAb (2 μg ml^−1) and anti-CD28 mAb (1 μg ml^−1) diluted in PBS were immobilized in a flat-bottom 96-well plastic culture plate for 1 h at 37° C. before use. In order to examine anti-tumor cellular response, CTL (2×10^5 cells) were also cultured with mitomycin C-treated P815 mastocytoma (2.5×10^5 cells). […]. Culture supernatant after 24-48 h was assayed for IFN-γ levels by ELISA.
# CD8+ T cells = assay: Flowcytometric analysis (CD8 proportion, intracellular IFN-γ staining); format: cell-based, mice; conditions: for reduction of IFN-γ producers: control CTL, agonist 10 μM
# Experimental: Cells recovered from mixed lymphocyte culture were labeled with phycoerythrin-conjugated anti-CD8, allophycocyanin-conjugated anti-CD4 and fluorescein-conjugated anti-CD69 mAb, and were analyzed by FACSCalibur (BD Biosciences). Cytokine production from CTL was analyzed by intracellular staining as described (Nishimura et al., 1999). After the stimulation with immobilized anti-CD3 and anti-CD28 mAb for 24 h, cells were further incubated in the presence of brefeldin A (10 μg ml^−1) for 2 h. Cells were fixed with 4% parafolmaldehyde-PBS for 15 min, permeabilized with permeabilizing buffer (50 mM NaCl, 5 mM EDTA, 0.02% NaN3, 0.5% Triton X-100, 10 mM Tris-HCl, pH 7.5) for 15 min, and stained with fluorescein-labeled anti-IFN-γ mAb. IFN-γ-producing CD8^+ cells were identified by cell surface staining using phycoerythrin-conjugated anti-CD8 mAb. All antibodies were obtained from BD Biosciences.
# [4] = NECA (0.1-1 μM) added only for 2 days after restimulation of 5-day CTL
# [5] = CTL developed with NECA (0.1 (unit uncertain))
# [6] = CTL developed with NECA (1 (unit uncertain))
# [7] = CTL developed with NECA (10 (unit uncertain))
structure (smiles),measurement,setting,value
"CCNC(=O)[C@H]1O[C@@H](n2cnc3c(N)ncnc32)[C@H](O)[C@@H]1O [NECA, 5′-N-ethylcarboxamidoadenosine]",IFN-γ levels in the culture supernatant after restimulation,[1]; [4],inhibit
same,"IFN-γ levels in the culture supernatant, decreased to",[1]; 10^−5 M NECA,18%
same,"IFN-γ levels in the culture supernatant, decreased to",[1]; 10^−7 M NECA,44%
same,proliferation of CTL after restimulation,[2]; [4],inhibit proliferation of CTL
same,"cell number, % of control",[2]; NECA 0.1 μM,78%
same,"cell number, % of control",[2]; NECA 1 μM,72%
same,"cell number, % of control",[2]; NECA 10 μM,68%
same,"Cell proliferation, [3H] thymidine incorporation, decreased to","[2]; primary mixed lymphocyte culture, 5 days in the presence of NECA (0.1-10 μM)",30-40%
same,increase of cAMP levels,[3],11.1 fold
same,"Cytotoxicity, % of control","P815 mastocytoma; CTL from primary culture with 10^−5 M NECA, effector-target ratio 5:1",33%
same,cytotoxicity against P815,"P815 mastocytoma; NECA added only for 2 days after restimulation, effector-target ratio 5:1, 2.5:1, 1.25:1",not impaired
same,IFN-γ levels,CTL; CTL developed with NECA 0.1 μM (table; 0.1 μM),3722 pg/mL
same,IFN-γ levels,CTL; CTL developed with NECA 1 mM (table; 1 μM),2327 pg/mL
same,IFN-γ levels,CTL; CTL developed with NECA 10 mM (table; 10 μM),1089 pg/mL
same,IFN-γ levels (%) of corresponding CTL without CGS/NECA,CTL; [5],44 ± 12 %
same,"IFN-γ levels (%), None (reference = 100)",CTL; [5],100 ± 23%
same,IFN-γ levels (%) of corresponding CTL without CGS/NECA,CTL; [6],56 ± 8 %
same,"IFN-γ levels (%), None (reference = 100)",CTL; [6],100 ± 19%
same,IFN-γ levels (%) of corresponding CTL without CGS/NECA,CTL; [7],60 ± 8 %
same,"IFN-γ levels (%), None (reference = 100)",CTL; [7],100 ± 5%
same,IFN-γ levels (%) of corresponding CTL without CGS/NECA,CTL; Control CTL,28 ± 7%
same,IFN-γ production,CTL,strongly inhibited
same,proportion of CD8+ T cells in the expanded cells,CD8+ T cells; NECA added only for 2 days after restimulation,unchanged from control CTL
same,reduction of IFN-γ producers,CD8+ T cells,70%
CCNC(=O)[C@H]1O[C@@H](n2cnc3c(N)nc(NCCc4ccc(CCC(=O)O)cc4)nc32)[C@H](O)[C@@H]1O [CGS],increase of cAMP levels,[3],7.4 fold
same,IFN-γ levels (%) of corresponding CTL without CGS/NECA,CTL; [5],57 ± 8 %
same,IFN-γ levels (%) of corresponding CTL without CGS/NECA,CTL; [6],67 ± 10 %
same,IFN-γ levels (%) of corresponding CTL without CGS/NECA,CTL; [7],80 ± 13 %
same,IFN-γ levels (%) of corresponding CTL without CGS/NECA,CTL; Control CTL,44% and 44 ± 11%
same,IFN-γ production,CTL,strongly inhibited
same,IFN-γ producing capacity retained,CTL; negatively selected NECA-CTL tested for inhibition by CGS,up to 80%
same,reduction of IFN-γ producers,CD8+ T cells,70%
